“Also recorded” adds a separate entry of the source.
Tests used:
[1] = system: PKCδ/θ-IκBα/ε-NF-κB signaling; conditions: IngB treatment; cited from earlier work
[2] = system: PEP005-induced HIV reactivation in J-Lat A1 cells; experiment: Suppression of PEP005-induced HIV reactivation in J-Lat A1 cells (GFP expression by RT-qPCR); type: cell-based; conditions: 6 nM PEP005, PKC inhibitor 1, 2 or 5 μM, Bay 11-7082 2.5 μM
Method: FIG. 4: PEP005-induced HIV reactivation is mediated through PKCδ/θ-IκBα/ε-NF-κB signaling. (A) PEP005-induced HIV reactivation is suppressed by inhibition of the PKCδ/θ. J-Lat A1 cells were treated with 6 nM of PEP005 in the presence of 1, 2 or 5 μM of PKC inhibitor (PKCθ/δ inhibitor; Milipore/Calbiochem (539649)) and evaluated for GFP expression by RT-qPCR. (B) NF-κB inhibition partially suppresses PEP005-induced HIV reactivation in J-Lat A1 cells. J-Lat A1 cells were treated with 6 nM of PEP005 in the presence of 2.5 μM Bay 11-7082, an NF-κB inhibitor, and were evaluated for GFP expression by RT-qPCR. (C) J-Lat A1 cells were treated with PEP005 or alternatively with PKC inhibitor alone or in the presence of PEP005 and the relative binding of NF-κB to the HIV LTR was determined using ChIP-qPCR.
Real-time PCR analysis of GFP or HIV gene expression: Total RNA was isolated from J-Lat A1 cells or U1 cells using the RNeasy Kit (Qiagen) followed by digestion with DNase I (Invitrogen). First strand cDNA was synthesized using Superscript II (Invitrogen). Real-time PCR (TaqMan) was performed on a ViiA 7 detector using the following primer/probe set: for J-Lat A1 cells, primer 1: 5′-[…]-3′ (SEQ ID NO:5), primer 2: 5′-[…]-3 ‘ (SEQ ID NO:6), probe 5’-FAM CTACAAGACCC G[…]-3′ (SEQ ID NO:7), for U1 cells HIV 5′ LTR primers/probe were used (see above). […]

[3] = system: latent HIV in J-Lat A1 cells; experiment: HIV latency reactivation in J-Lat A1 cells (GFP expression by flow cytometry); type: cell-based; conditions: GFP, 24 h, PEP005 2-40 nM, GSK343 2 μM
Method: FIG. 1: PEP005 induces reactivation of HIV latency in vitro. J-Lat A1 cells were exposed to different concentrations of PEP005 and virus reactivation was measured by GFP expression using flow cytometry. Cell viability was determined by Live/Dead dye staining. (A) Chemical Structure of PEP005. […] (D) PEP005 potently reactivates latent HIV in cell lines compared with other LRAs. J-Lat A1 cells were treated with 10 nM PEP005, 500 nM SAHA, 2 μM JQ1, 2 μM GSK343, 10 ng/ml TNF, 2 μM Prostratin, or 5 ng/ml PMA for 24 hours and the percentage of GFP expression was evaluated using flow cytometry. *, p<0.05; **, p<0.01.
FIG. 2: PEP005 synergizes with other latency reversing agents in reactivating latent HIV. (A) J-Lat A1 cells were treated with 5 ng/ml PMA, 6 nM PEP005, 500 nM SAHA, 2 μM JQ1, 2 μM GSK343, or 10 μM Prostratin alone or in combination with 6 nM PEP005 for 24 hours and the percentage of GFP expressing cells was determined using flow cytometry. **, p<0.01; *, p<0.05 compared with control treatment; **, p<0.01; *, p<0.05 compared with PEP005 treatment alone. (B) The U1 cells were treated with 5 ng/ml PMA, 6 nM PEP005, 500 nM SAHA, 2 μM JQ1, or 2 μM GSK343, alone or in combination with 6 nM PEP005 for 24 hours and the HIV transcription was evaluated using RT-qPCR. Numbers indicate fold-increase over the control. **, p<0.01; *, p<0.05 compared with control treatment; **, p<0.01; *, p<0.05 compared with PEP005 treatment alone. […] The Bliss independence model was utilized for calculation of synergy for LRA combinations. Dotted horizontal line signifies pure additive effect (Δfaxy=0). Synergy is defined as Δfaxy>0 while Δfaxy<0 indicates antagonism. Statistical significance was determined using a one tailed ratio t-test comparing predicted and observed drug combination effects. *p<0.05; **p<0.01.
J-Lat A1 cells (harboring a single copy of latent HIV LTR and one copy of green fluorescent protein gene under the HIV LTR control) or U1 cells (harboring two latent HIV genomes with defective Tat gene) were cultured in RPMI1640 medium with 10% fetal bovine serum (FBS) and 1% Pen/strep in a 37° C. incubator containing 5% CO2 [24,31]. Both of the cell lines were obtained from NIH AIDS Reagent Program. For reactivation of HIV LTR, cells were treated with PMA (Sigma), JQ1 (Biovision), Prostatin (Sigma), SAHA (Santa Cruz), TNF-α (BD), GSK343 (Sigma), or PEP005 (Tocris Bioscience) for 24 h. HIV reactivation was quantified by GFP expression using flow cytometry and the data were analyzed using FlowJo Software for J-Lat A1 cells, or by quantitative RT-PCR (RT-qPCR) for J-Lat A1 and U1 cells. Cell viability was evaluated using Live/Dead dye (Life Technologies) by flow cytometry. So far, there is not a single in vitro cell culture model available that captures all the features of HIV latency. However, PKC agonists seem to reactivate latent HIV in all the cell culture models of viral latency. Similar to other J-Lat cell lines, the J-Lat A1 clone has been widely used by researchers for HIV latency studies. The T-cell-derived J-Lat A1 cells harbor one copy of a construct containing a Tat and a green fluorescent protein (GFP) gene framed by the 5′ and 3′ HIV LTR [32]. The J-Lat A1 cells also contain the TAR loop located within the R region of HIV LTR (nt +1 to +60), which provides an opportunity for Tat-TAR interactions for the modulation of transcription and transcriptional elongation. […]

CCCCCC(=O)O[C@H]1C(C)=C[C@]23C(=O)[C@@H](C=C(CO)[C@@H](O)[C@]12O)[C@H]1[C@@H](C[C@H]3C)C1(C)C [IngB, ingenol-3-hexanoate]
expression of NF-κB/p65 protein, earlier report [24] [1]: increased expression of NF-κB/p65 protein

Cc1ccc(S(=O)(=O)/C=C/C#N)cc1 [Bay-11-7082]
reduction of PEP005-induced latent HIV reactivation [2]: approximately 50%

CCCc1cc(C)[nH]c(=O)c1CNC(=O)c1cc(-c2ccnc(N3CCN(C)CC3)c2)cc2c1cnn2C(C)C [GSK343]
induction of HIV expression, agent alone [3]: failed to induce HIV expression; also recorded: could not effectively induce HIV expression; also recorded: no capacity to reactivate latent HIV by itself

Reference: patent publication US10376486B2, “Compositions and methods for reactivating latent viral infections” (priority 2014, dated 2019)
